# Assay results: the supplement of paper PMC11414989
# Assays:
# Details in all cases: exposure window: 6 hpf to 120 hpf, static, assay age: 120 hpf (5 dpf)
# [1] = test system: Danio rerio larvae (Tropical 5D); assay: mean angular velocity of exposed larvae, dark phase (angular velocity (unit not stated)); higher = more movement
# Description: (§1)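 Larval photomotor response in Tropical 5D wild-type zebrafish. Larvae were statically exposed to each chemical from 6 hpf to 5 dpf in 96-well plates; morphologically abnormal larvae were excluded. At 120 hpf, larvae were tracked with Ethovision XT (25 frames/s) over the 2nd cycle of 3 min light and 3 min dark. Values are the mean movement metric of exposed larvae per phase; same-plate control means (plate-dependent baseline) are given as conditions.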
# [2] = test system: Danio rerio larvae (Tropical 5D); assay: mean distance moved of exposed larvae, dark phase (µm per frame (1/25 s)); higher = more movement
# Description: as §1
# [3] = test system: Danio rerio larvae (Tropical 5D); assay: mean distance moved of exposed larvae, light phase (µm per frame (1/25 s)); higher = more movement
# Description: as §1
# [4] = test system: Danio rerio larvae (Tropical 5D); assay: mean angular velocity of exposed larvae, light phase (angular velocity (unit not stated)); higher = more movement
# Description: as §1
compound,measurement,setting,value
O=S(=O)(O)C(F)(F)C(F)(F)C(F)(F)C(F)(F)C(F)(F)F [Sodium Perfluoro-1-pentanesulfonate],mean angular velocity of exposed larvae,[1]; 0.25 µM,1.28
same,mean distance moved of exposed larvae,[2]; 0.25 µM,34.7
same,mean distance moved of exposed larvae,[3]; 0.25 µM,5.23
same,mean angular velocity of exposed larvae,[4]; 0.25 µM,0.235
O=C(O)CCC(F)(F)C(F)(F)C(F)(F)C(F)(F)C(F)(F)F [3-Perfluoropentyl propanoic acid],mean angular velocity of exposed larvae,[1]; 0.25 µM,0.61
same,mean distance moved of exposed larvae,[2]; 0.25 µM,14.9
same,mean distance moved of exposed larvae,[3]; 0.25 µM,1.49
same,mean angular velocity of exposed larvae,[4]; 0.25 µM,0.0445
CN1C(=O)CN=C(c2ccccc2)c2cc(Cl)ccc21 [Diazepam],mean angular velocity of exposed larvae,[1]; 1 µM,1.05
same,mean angular velocity of exposed larvae,[1]; 3 µM,1.06
same,mean angular velocity of exposed larvae,[1]; 5 µM,1.17
same,mean angular velocity of exposed larvae,[1]; 8 µM,0.786
same,mean angular velocity of exposed larvae,[1]; 12 µM,0.733
same,mean distance moved of exposed larvae,[2]; 1 µM,22.5
same,mean distance moved of exposed larvae,[2]; 3 µM,22.7
same,mean distance moved of exposed larvae,[2]; 5 µM,21.5
same,mean distance moved of exposed larvae,[2]; 8 µM,17.3
same,mean distance moved of exposed larvae,[2]; 12 µM,17
same,mean distance moved of exposed larvae,[3]; 1 µM,10.9
same,mean distance moved of exposed larvae,[3]; 3 µM,7.88
same,mean distance moved of exposed larvae,[3]; 5 µM,7.53
same,mean distance moved of exposed larvae,[3]; 8 µM,10
same,mean distance moved of exposed larvae,[3]; 12 µM,11
same,mean angular velocity of exposed larvae,[4]; 1 µM,0.379
same,mean angular velocity of exposed larvae,[4]; 3 µM,0.422
same,mean angular velocity of exposed larvae,[4]; 5 µM,0.41
same,mean angular velocity of exposed larvae,[4]; 8 µM,0.389
same,mean angular velocity of exposed larvae,[4]; 12 µM,0.456
C[Si](C)(C)C(F)(F)C(F)(F)C(F)(F)F [(Heptafluoropropyl)trimethylsilane],mean angular velocity of exposed larvae,[1]; 0.015 µM,0.571
same,mean angular velocity of exposed larvae,[1]; 0.046 µM,0.779
same,mean angular velocity of exposed larvae,[1]; 0.14 µM,0.81
same,mean angular velocity of exposed larvae,[1]; 0.41 µM,0.637
same,mean angular velocity of exposed larvae,[1]; 1.23 µM,0.884
same,mean angular velocity of exposed larvae,[1]; 3.7 µM,0.521
same,mean angular velocity of exposed larvae,[1]; 11.1 µM,0.685
same,mean angular velocity of exposed larvae,[1]; 33.3 µM,0.594
same,mean angular velocity of exposed larvae,[1]; 66.5 µM,0.949
same,mean angular velocity of exposed larvae,[1]; 100 µM,1.01
same,mean distance moved of exposed larvae,[2]; 0.015 µM,13.3
same,mean distance moved of exposed larvae,[2]; 0.046 µM,19.7
same,mean distance moved of exposed larvae,[2]; 0.14 µM,19.1
same,mean distance moved of exposed larvae,[2]; 0.41 µM,16.9
same,mean distance moved of exposed larvae,[2]; 1.23 µM,22.6
same,mean distance moved of exposed larvae,[2]; 3.7 µM,12.9
same,mean distance moved of exposed larvae,[2]; 11.1 µM,18.6
same,mean distance moved of exposed larvae,[2]; 33.3 µM,15.3
same,mean distance moved of exposed larvae,[2]; 66.5 µM,25.7
same,mean distance moved of exposed larvae,[2]; 100 µM,24.3
same,mean distance moved of exposed larvae,[3]; 0.015 µM,1.23
same,mean distance moved of exposed larvae,[3]; 0.046 µM,1.25
same,mean distance moved of exposed larvae,[3]; 0.14 µM,1.98
same,mean distance moved of exposed larvae,[3]; 0.41 µM,1.51
same,mean distance moved of exposed larvae,[3]; 1.23 µM,1.46
same,mean distance moved of exposed larvae,[3]; 3.7 µM,0.916
same,mean distance moved of exposed larvae,[3]; 11.1 µM,2.09
same,mean distance moved of exposed larvae,[3]; 33.3 µM,1.5
same,mean distance moved of exposed larvae,[3]; 66.5 µM,1.57
same,mean distance moved of exposed larvae,[3]; 100 µM,2.09
same,mean angular velocity of exposed larvae,[4]; 0.015 µM,0.0325
same,mean angular velocity of exposed larvae,[4]; 0.046 µM,0.0534
same,mean angular velocity of exposed larvae,[4]; 0.14 µM,0.0675
same,mean angular velocity of exposed larvae,[4]; 0.41 µM,0.0607
same,mean angular velocity of exposed larvae,[4]; 1.23 µM,0.048
same,mean angular velocity of exposed larvae,[4]; 3.7 µM,0.0422
same,mean angular velocity of exposed larvae,[4]; 11.1 µM,0.0925
same,mean angular velocity of exposed larvae,[4]; 33.3 µM,0.0521
same,mean angular velocity of exposed larvae,[4]; 66.5 µM,0.0503
same,mean angular velocity of exposed larvae,[4]; 100 µM,0.0731
CC[C@H](C)[C@H]1O[C@]2(C=C[C@@H]1C)C[C@@H]1C[C@@H](C/C=C(\C)[C@@H](O[C@H]3C[C@H](OC)[C@@H](O[C@H]4C[C@H](OC)[C@@H](O)[C@H](C)O4)[C@H](C)O3)[C@@H](C)/C=C/C=C3\CO[C@@H]4[C@H](O)C(C)=C[C@@H](C(=O)O1)[C@]34O)O2.CO[C@H]1C[C@H](O[C@H]2[C@H](C)O[C@@H](O[C@@H]3/C(C)=C/C[C@@H]4C[C@@H](C[C@]5(C=C[C@H](C)[C@@H](C(C)C)O5)O4)OC(=O)[C@@H]4C=C(C)[C@@H](O)[C@H]5OC/C(=C\C=C\[C@@H]3C)[C@]54O)C[C@@H]2OC)O[C@@H](C)[C@@H]1O [Abamectin],mean angular velocity of exposed larvae,[1]; 0.1 µM,0.434
same,mean angular velocity of exposed larvae,[1]; 0.2 µM,0.554
same,mean angular velocity of exposed larvae,[1]; 0.4 µM,0.283
same,mean angular velocity of exposed larvae,[1]; 0.5 µM,0.124
same,mean angular velocity of exposed larvae,[1]; 0.6 µM,0.0798
same,mean angular velocity of exposed larvae,[1]; 0.8 µM,0.0985
same,mean distance moved of exposed larvae,[2]; 0.1 µM,11.5
same,mean distance moved of exposed larvae,[2]; 0.2 µM,14.8
same,mean distance moved of exposed larvae,[2]; 0.4 µM,7.04
same,mean distance moved of exposed larvae,[2]; 0.5 µM,3.9
same,mean distance moved of exposed larvae,[2]; 0.6 µM,2.89
same,mean distance moved of exposed larvae,[2]; 0.8 µM,3.08
same,mean distance moved of exposed larvae,[3]; 0.1 µM,2.76
same,mean distance moved of exposed larvae,[3]; 0.2 µM,5.62
same,mean distance moved of exposed larvae,[3]; 0.4 µM,2.25
same,mean distance moved of exposed larvae,[3]; 0.5 µM,2.39
same,mean distance moved of exposed larvae,[3]; 0.6 µM,1.04
same,mean distance moved of exposed larvae,[3]; 0.8 µM,0.0237
same,mean angular velocity of exposed larvae,[4]; 0.1 µM,0.111
same,mean angular velocity of exposed larvae,[4]; 0.2 µM,0.19
same,mean angular velocity of exposed larvae,[4]; 0.4 µM,0.173
same,mean angular velocity of exposed larvae,[4]; 0.5 µM,0.0668
same,mean angular velocity of exposed larvae,[4]; 0.6 µM,0.0447
same,mean angular velocity of exposed larvae,[4]; 0.8 µM,0.00094
c1ccc2c(c1)c1cccc3c4ccccc4c4cccc2c4c13 [Dibenzo[e-l]pyrene],mean angular velocity of exposed larvae,[1]; 0.01 µM,0.665
same,mean angular velocity of exposed larvae,[1]; 0.025 µM,0.598
same,mean angular velocity of exposed larvae,[1]; 0.065 µM,0.644
same,mean angular velocity of exposed larvae,[1]; 0.164 µM,0.681
same,mean angular velocity of exposed larvae,[1]; 0.35 µM,0.693
same,mean angular velocity of exposed larvae,[1]; 0.75 µM,0.704
same,mean angular velocity of exposed larvae,[1]; 1 µM,0.415
same,mean angular velocity of exposed larvae,[1]; 2.54 µM,0.428
same,mean angular velocity of exposed larvae,[1]; 6.45 µM,0.349
same,mean angular velocity of exposed larvae,[1]; 16.4 µM,0.245
same,mean angular velocity of exposed larvae,[1]; 35 µM,0.503
same,mean angular velocity of exposed larvae,[1]; 74.8 µM,0.384
same,mean angular velocity of exposed larvae,[1]; 100 µM,0.353
same,mean distance moved of exposed larvae,[2]; 0.01 µM,23.6
same,mean distance moved of exposed larvae,[2]; 0.025 µM,22.4
same,mean distance moved of exposed larvae,[2]; 0.065 µM,24.7
same,mean distance moved of exposed larvae,[2]; 0.164 µM,22.8
same,mean distance moved of exposed larvae,[2]; 0.35 µM,25.3
same,mean distance moved of exposed larvae,[2]; 0.75 µM,26.3
same,mean distance moved of exposed larvae,[2]; 1 µM,13.5
same,mean distance moved of exposed larvae,[2]; 2.54 µM,10.8
same,mean distance moved of exposed larvae,[2]; 6.45 µM,9.33
same,mean distance moved of exposed larvae,[2]; 16.4 µM,8.16
same,mean distance moved of exposed larvae,[2]; 35 µM,12
same,mean distance moved of exposed larvae,[2]; 74.8 µM,9.85
same,mean distance moved of exposed larvae,[2]; 100 µM,9.64
same,mean distance moved of exposed larvae,[3]; 0.01 µM,7.75
same,mean distance moved of exposed larvae,[3]; 0.025 µM,6.96
same,mean distance moved of exposed larvae,[3]; 0.065 µM,6.48
same,mean distance moved of exposed larvae,[3]; 0.164 µM,8.06
same,mean distance moved of exposed larvae,[3]; 0.35 µM,7.37
same,mean distance moved of exposed larvae,[3]; 0.75 µM,6.8
same,mean distance moved of exposed larvae,[3]; 1 µM,4.47
same,mean distance moved of exposed larvae,[3]; 2.54 µM,2.56
same,mean distance moved of exposed larvae,[3]; 6.45 µM,1.7
same,mean distance moved of exposed larvae,[3]; 16.4 µM,1.99
same,mean distance moved of exposed larvae,[3]; 35 µM,1.66
same,mean distance moved of exposed larvae,[3]; 74.8 µM,1.63
same,mean distance moved of exposed larvae,[3]; 100 µM,3.03
same,mean angular velocity of exposed larvae,[4]; 0.01 µM,0.217
same,mean angular velocity of exposed larvae,[4]; 0.025 µM,0.129
same,mean angular velocity of exposed larvae,[4]; 0.065 µM,0.194
same,mean angular velocity of exposed larvae,[4]; 0.164 µM,0.187
same,mean angular velocity of exposed larvae,[4]; 0.35 µM,0.147
same,mean angular velocity of exposed larvae,[4]; 0.75 µM,0.138
same,mean angular velocity of exposed larvae,[4]; 1 µM,0.119
same,mean angular velocity of exposed larvae,[4]; 2.54 µM,0.113
same,mean angular velocity of exposed larvae,[4]; 6.45 µM,0.0734
same,mean angular velocity of exposed larvae,[4]; 16.4 µM,0.0678
same,mean angular velocity of exposed larvae,[4]; 35 µM,0.0716
same,mean angular velocity of exposed larvae,[4]; 74.8 µM,0.0555
same,mean angular velocity of exposed larvae,[4]; 100 µM,0.0996
O=P(O)(O)C(F)(F)C(F)(F)C(F)(F)C(F)(F)C(F)(F)C(F)(F)C(F)(F)C(F)(F)Cl [8-Chloroperfluorooctylphosphonic acid],mean angular velocity of exposed larvae,[1]; 0.167 µM,0.9
same,mean distance moved of exposed larvae,[2]; 0.167 µM,24.4
same,mean distance moved of exposed larvae,[3]; 0.167 µM,7.53
same,mean angular velocity of exposed larvae,[4]; 0.167 µM,0.234
